Like-named read-outs stand apart in the source and are kept apart here.
Legend:
Assay in all cases: biochemical
KIT(V559D) = KIT(V559D) (Homo sapiens, UniProt P10721, V559D); design: DiscoveRx KINOMEscan active site-directed competition binding; percent of control kinase bound to immobilised ligand
CDK9 = CDK9 (Homo sapiens, UniProt P50750); design: DiscoveRx KINOMEscan active site-directed competition binding; percent of control kinase bound to immobilised ligand
KIT = KIT (Homo sapiens, UniProt P10721); design: DiscoveRx KINOMEscan active site-directed competition binding; percent of control kinase bound to immobilised ligand
AKT1 = AKT1 (Homo sapiens, UniProt P31749); design: DiscoveRx KINOMEscan active site-directed competition binding; percent of control kinase bound to immobilised ligand
DAPK3 = DAPK3 (Homo sapiens, UniProt O43293); design: DiscoveRx KINOMEscan active site-directed competition binding; percent of control kinase bound to immobilised ligand
CAMK1G = CAMK1G (Homo sapiens, UniProt Q96NX5); design: DiscoveRx KINOMEscan active site-directed competition binding; percent of control kinase bound to immobilised ligand
FLT4 = FLT4 (Homo sapiens, UniProt P35916); design: DiscoveRx KINOMEscan active site-directed competition binding; percent of control kinase bound to immobilised ligand
PIK3CD = target: T1, PIK3CD (Homo sapiens, UniProt O00329); design: DiscoveRx KINOMEscan active site-directed competition binding; percent of control kinase bound to immobilised ligand
T1 sequence (O00329 1-1044): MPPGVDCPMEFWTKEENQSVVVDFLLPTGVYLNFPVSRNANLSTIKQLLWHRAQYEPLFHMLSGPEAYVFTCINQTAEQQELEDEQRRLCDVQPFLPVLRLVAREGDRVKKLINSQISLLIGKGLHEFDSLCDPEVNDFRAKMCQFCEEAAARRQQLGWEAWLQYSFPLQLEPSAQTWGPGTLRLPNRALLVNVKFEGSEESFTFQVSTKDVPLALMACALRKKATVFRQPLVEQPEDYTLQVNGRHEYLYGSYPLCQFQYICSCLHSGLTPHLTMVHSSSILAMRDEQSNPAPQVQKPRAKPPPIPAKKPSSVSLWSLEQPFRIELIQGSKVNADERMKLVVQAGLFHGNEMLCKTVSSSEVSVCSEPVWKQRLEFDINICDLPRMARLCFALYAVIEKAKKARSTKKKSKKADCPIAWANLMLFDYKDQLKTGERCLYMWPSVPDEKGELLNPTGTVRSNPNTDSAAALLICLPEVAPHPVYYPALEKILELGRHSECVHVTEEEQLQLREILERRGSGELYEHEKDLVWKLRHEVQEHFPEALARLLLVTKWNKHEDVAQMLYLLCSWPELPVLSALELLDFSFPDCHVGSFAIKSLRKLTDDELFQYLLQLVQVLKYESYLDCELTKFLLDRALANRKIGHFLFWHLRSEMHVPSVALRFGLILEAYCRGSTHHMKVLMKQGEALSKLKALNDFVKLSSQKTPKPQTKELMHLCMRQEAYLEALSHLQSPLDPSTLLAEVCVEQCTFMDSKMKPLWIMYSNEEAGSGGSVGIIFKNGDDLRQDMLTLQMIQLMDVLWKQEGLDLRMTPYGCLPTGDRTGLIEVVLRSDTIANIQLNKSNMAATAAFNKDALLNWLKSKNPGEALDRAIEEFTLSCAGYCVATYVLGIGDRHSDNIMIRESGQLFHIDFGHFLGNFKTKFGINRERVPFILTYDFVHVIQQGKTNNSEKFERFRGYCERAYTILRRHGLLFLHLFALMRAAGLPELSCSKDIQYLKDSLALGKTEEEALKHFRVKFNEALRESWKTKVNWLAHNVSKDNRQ

MAP4K5 = MAP4K5 (Homo sapiens, UniProt Q9Y4K4); design: DiscoveRx KINOMEscan active site-directed competition binding; percent of control kinase bound to immobilised ligand
ADCK3 = target: T2, ADCK3 (Homo sapiens, UniProt Q8NI60); design: DiscoveRx KINOMEscan active site-directed competition binding; percent of control kinase bound to immobilised ligand
T2 construct: gene COQ8A

[1] = target: T3, ABL1(E255K)-phosphorylated (Homo sapiens, UniProt P00519, E255K); design: DiscoveRx KINOMEscan active site-directed competition binding; percent of control kinase bound to immobilised ligand
T3 construct: phosphorylated

CDK4-cyclinD3 = CDK4-cyclinD3 (Homo sapiens, UniProt P11802); design: cyclinD3; DiscoveRx KINOMEscan active site-directed competition binding; percent of control kinase bound to immobilised ligand
[2] = read-out: Talazoparib (BMN 673) / %Ctrl @ 10000nM
[3] = read-out: Olaparib / %Ctrl @ 10000nM
[4] = read-out: Niraparib (MK-4827) / %Ctrl @ 10000nM
[5] = read-out: Rucaparib / %Ctrl @ 10000nM, binding competition, % of control

Sequence of CDK4-cyclinD3 (P11802 whole entry): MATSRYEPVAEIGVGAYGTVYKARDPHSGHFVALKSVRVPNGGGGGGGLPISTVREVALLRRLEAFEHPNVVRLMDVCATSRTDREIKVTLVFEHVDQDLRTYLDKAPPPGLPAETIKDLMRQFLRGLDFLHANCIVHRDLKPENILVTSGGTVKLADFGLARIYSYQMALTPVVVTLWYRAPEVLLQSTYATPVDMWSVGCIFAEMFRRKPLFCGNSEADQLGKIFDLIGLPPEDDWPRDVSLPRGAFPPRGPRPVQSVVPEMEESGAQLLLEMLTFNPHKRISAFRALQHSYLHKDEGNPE
Sequence of CDK4-cyclinD3 (P30281 whole entry partner): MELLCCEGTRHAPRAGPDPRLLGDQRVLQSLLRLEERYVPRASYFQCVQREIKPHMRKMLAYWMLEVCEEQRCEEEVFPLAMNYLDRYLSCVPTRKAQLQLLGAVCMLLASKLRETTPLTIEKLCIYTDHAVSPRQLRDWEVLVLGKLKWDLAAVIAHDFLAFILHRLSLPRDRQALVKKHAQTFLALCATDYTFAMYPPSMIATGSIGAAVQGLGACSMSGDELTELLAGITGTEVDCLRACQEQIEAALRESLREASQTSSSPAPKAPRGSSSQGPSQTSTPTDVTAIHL
Sequence of DAPK3 (O43293 whole entry): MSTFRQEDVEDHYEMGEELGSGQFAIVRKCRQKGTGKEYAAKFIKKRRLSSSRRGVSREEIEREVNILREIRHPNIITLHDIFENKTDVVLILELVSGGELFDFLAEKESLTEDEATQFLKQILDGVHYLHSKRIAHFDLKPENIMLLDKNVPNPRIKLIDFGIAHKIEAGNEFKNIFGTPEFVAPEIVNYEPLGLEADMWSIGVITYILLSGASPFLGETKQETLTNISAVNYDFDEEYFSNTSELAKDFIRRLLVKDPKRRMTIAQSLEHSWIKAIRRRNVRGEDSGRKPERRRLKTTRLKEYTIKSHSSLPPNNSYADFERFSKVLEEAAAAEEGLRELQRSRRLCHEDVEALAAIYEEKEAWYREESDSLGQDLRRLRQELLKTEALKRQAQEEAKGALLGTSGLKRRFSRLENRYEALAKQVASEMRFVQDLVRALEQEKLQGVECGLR
T3 sequence (P00519 whole entry E255K): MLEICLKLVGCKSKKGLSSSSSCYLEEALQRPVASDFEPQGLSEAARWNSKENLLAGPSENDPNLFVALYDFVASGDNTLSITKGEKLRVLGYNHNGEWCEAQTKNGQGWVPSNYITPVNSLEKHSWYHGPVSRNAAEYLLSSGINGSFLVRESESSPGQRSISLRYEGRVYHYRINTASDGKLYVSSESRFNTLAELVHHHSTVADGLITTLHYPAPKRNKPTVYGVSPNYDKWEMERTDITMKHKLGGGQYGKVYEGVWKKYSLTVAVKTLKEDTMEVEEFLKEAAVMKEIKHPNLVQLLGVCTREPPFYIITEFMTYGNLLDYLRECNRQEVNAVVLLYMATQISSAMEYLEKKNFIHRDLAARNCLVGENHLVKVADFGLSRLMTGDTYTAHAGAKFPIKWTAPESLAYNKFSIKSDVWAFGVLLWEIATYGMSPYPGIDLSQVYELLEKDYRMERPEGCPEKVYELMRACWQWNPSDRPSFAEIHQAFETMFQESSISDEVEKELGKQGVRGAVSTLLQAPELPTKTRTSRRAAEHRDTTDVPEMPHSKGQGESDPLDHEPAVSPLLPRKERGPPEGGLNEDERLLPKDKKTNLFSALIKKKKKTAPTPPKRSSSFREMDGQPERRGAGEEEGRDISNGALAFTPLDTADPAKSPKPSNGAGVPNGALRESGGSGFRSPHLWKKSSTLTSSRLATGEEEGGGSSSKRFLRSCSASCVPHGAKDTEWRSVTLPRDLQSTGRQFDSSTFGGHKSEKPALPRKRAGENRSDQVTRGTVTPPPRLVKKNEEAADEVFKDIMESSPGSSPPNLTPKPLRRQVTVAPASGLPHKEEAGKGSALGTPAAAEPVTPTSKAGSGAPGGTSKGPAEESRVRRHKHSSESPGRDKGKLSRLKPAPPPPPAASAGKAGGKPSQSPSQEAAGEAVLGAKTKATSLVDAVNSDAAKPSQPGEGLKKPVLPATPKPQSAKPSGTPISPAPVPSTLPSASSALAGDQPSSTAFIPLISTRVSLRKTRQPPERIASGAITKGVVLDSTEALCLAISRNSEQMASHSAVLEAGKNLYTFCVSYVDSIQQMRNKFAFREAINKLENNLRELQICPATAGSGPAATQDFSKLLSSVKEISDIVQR
Sequence of KIT(V559D) (P10721 whole entry V559D): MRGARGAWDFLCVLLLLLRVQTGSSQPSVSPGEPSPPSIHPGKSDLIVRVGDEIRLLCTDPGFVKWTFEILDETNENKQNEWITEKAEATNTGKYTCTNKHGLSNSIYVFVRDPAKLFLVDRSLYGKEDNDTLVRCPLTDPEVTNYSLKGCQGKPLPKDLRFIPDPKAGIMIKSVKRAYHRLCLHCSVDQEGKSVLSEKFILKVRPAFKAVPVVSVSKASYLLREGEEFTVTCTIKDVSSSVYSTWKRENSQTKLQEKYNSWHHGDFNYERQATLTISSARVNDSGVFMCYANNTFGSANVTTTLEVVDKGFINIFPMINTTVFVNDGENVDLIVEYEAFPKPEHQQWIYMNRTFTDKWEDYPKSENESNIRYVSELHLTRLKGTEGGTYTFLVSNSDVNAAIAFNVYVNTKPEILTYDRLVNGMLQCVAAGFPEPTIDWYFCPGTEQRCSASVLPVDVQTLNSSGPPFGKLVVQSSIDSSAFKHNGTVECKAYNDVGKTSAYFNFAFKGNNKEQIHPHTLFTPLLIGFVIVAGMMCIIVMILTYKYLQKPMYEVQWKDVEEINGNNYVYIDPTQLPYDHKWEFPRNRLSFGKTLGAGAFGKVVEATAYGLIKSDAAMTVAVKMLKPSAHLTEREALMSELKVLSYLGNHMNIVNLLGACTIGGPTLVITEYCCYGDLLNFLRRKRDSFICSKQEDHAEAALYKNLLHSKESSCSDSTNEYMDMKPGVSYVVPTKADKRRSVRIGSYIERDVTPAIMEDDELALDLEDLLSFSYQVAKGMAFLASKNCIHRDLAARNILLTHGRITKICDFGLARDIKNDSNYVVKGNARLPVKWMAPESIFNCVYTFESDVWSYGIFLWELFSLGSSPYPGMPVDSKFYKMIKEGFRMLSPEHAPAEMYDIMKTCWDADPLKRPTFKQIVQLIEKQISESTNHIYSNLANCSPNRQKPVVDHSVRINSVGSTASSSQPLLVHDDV
Sequence of AKT1 (P31749 whole entry): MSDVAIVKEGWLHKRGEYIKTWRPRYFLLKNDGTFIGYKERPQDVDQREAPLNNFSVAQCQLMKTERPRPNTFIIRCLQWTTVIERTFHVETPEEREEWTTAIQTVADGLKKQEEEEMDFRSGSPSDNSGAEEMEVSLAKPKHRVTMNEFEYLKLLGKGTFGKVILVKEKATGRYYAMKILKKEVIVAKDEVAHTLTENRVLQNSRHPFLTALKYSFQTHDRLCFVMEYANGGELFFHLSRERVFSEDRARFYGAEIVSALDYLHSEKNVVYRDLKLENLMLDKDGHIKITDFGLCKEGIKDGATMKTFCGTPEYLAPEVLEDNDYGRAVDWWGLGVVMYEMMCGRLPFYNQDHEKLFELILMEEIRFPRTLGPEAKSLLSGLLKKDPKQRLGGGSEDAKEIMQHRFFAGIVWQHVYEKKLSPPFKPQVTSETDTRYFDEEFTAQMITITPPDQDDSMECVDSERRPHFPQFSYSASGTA
T2 sequence (Q8NI60 whole entry): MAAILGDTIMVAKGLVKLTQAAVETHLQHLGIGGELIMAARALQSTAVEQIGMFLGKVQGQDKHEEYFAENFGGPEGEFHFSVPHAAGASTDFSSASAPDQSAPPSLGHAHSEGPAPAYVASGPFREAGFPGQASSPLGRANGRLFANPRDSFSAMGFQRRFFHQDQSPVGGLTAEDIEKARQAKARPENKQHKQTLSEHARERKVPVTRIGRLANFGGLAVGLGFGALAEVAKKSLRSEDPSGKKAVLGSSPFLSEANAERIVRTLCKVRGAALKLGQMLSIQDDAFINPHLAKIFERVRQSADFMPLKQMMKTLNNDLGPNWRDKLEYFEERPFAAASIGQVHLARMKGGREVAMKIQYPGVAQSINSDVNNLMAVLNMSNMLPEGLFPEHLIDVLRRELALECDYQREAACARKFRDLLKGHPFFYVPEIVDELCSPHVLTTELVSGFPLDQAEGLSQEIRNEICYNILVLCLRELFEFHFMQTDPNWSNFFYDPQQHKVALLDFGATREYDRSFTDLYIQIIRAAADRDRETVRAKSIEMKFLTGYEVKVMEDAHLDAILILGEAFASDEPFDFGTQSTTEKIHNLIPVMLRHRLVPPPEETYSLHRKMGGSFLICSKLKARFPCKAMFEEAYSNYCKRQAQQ
Sequence of CAMK1G (Q96NX5 whole entry): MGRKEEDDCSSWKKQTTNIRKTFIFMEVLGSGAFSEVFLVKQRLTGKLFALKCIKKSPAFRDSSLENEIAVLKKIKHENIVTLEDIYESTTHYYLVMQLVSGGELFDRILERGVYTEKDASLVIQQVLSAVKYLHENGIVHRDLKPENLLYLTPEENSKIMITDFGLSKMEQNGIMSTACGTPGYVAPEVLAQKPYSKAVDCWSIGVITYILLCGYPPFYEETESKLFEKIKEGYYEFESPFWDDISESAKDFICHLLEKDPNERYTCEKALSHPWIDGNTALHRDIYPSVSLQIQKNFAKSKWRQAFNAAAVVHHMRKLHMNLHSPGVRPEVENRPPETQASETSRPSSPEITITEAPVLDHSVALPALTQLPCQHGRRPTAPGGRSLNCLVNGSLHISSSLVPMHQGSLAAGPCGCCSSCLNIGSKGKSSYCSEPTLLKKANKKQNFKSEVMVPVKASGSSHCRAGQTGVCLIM
Sequence of KIT (P10721 whole entry): as the sequence (P10721 whole entry V559D) above, with D559V counted along it

## Cn1ncnc1[C@H]1c2n[nH]c(=O)c3cc(F)cc(c23)N[C@@H]1c1ccc(F)cc1 [Talazoparib]
KIT(V559D); [2]
  percent of control binding at 10 µM: 100%
CDK9; [2]
  percent of control binding at 10 µM: 100%
KIT; [2]
  percent of control binding at 10 µM: 100%
AKT1; [2]
  percent of control binding at 10 µM: 92%
DAPK3; [2]
  percent of control binding at 10 µM: 87%
CAMK1G; [2]
  percent of control binding at 10 µM: 100%
FLT4; [2]
  percent of control binding at 10 µM: 93%
PIK3CD; [2]
  percent of control binding at 10 µM: 82%
MAP4K5; [2]
  percent of control binding at 10 µM: 100%
ADCK3; [2]
  percent of control binding at 10 µM: 100%
[1]; [2]
  percent of control binding at 10 µM: 100%
CDK4-cyclinD3; [2]
  percent of control binding at 10 µM: 99%

## O=C(c1cc(Cc2n[nH]c(=O)c3ccccc23)ccc1F)N1CCN(C(=O)C2CC2)CC1 [Olaparib]
KIT(V559D); [3]
  percent of control binding at 10 µM: 100%
CDK9; [3]
  percent of control binding at 10 µM: 100%
KIT; [3]
  percent of control binding at 10 µM: 99%
AKT1; [3]
  percent of control binding at 10 µM: 100%
DAPK3; [3]
  percent of control binding at 10 µM: 93%
CAMK1G; [3]
  percent of control binding at 10 µM: 93%
FLT4; [3]
  percent of control binding at 10 µM: 97%
PIK3CD; [3]
  percent of control binding at 10 µM: 75%
MAP4K5; [3]
  percent of control binding at 10 µM: 96%
ADCK3; [3]
  percent of control binding at 10 µM: 99%
[1]; [3]
  percent of control binding at 10 µM: 89%
CDK4-cyclinD3; [3]
  percent of control binding at 10 µM: 95%

## NC(=O)c1cccc2cn(-c3ccc([C@@H]4CCCNC4)cc3)nc12 [Niraparib]
KIT(V559D); [4]
  percent of control binding at 10 µM: 90%
CDK9; [4]
  percent of control binding at 10 µM: 100%
KIT; [4]
  percent of control binding at 10 µM: 87%
AKT1; [4]
  percent of control binding at 10 µM: 99%
DAPK3; [4]
  percent of control binding at 10 µM: 69%
CAMK1G; [4]
  percent of control binding at 10 µM: 100%
FLT4; [4]
  percent of control binding at 10 µM: 99%
PIK3CD; [4]
  percent of control binding at 10 µM: 73%
MAP4K5; [4]
  percent of control binding at 10 µM: 100%
ADCK3; [4]
  percent of control binding at 10 µM: 57%
[1]; [4]
  percent of control binding at 10 µM: 64%
CDK4-cyclinD3; [4]
  percent of control binding at 10 µM: 38%

## CNCc1ccc(-c2[nH]c3cc(F)cc4c3c2CCNC4=O)cc1 [Rucaparib]
KIT(V559D); [5]
  percent of control binding at 10 µM: 92%
CDK9; [5]
  percent of control binding at 10 µM: 78%
KIT; [5]
  percent of control binding at 10 µM: 100%
AKT1; [5]
  percent of control binding at 10 µM: 91%
DAPK3; [5]
  percent of control binding at 10 µM: 24%
CAMK1G; [5]
  percent of control binding at 10 µM: 89%
FLT4; [5]
  percent of control binding at 10 µM: 95%
PIK3CD; [5]
  percent of control binding at 10 µM: 64%
MAP4K5; [5]
  percent of control binding at 10 µM: 98%
ADCK3; [5]
  percent of control binding at 10 µM: 69%
[1]; [5]
  percent of control binding at 10 µM: 91%
CDK4-cyclinD3; [5]
  percent of control binding at 10 µM: 12%
